Type in all cases: cell-based
The target of assay [1] is T1, Sodium-dependent neutral amino acid transporter B(0)AT2 (Homo sapiens, UniProt Q9H2J7).
T1 sequence (Q9H2J7 whole entry): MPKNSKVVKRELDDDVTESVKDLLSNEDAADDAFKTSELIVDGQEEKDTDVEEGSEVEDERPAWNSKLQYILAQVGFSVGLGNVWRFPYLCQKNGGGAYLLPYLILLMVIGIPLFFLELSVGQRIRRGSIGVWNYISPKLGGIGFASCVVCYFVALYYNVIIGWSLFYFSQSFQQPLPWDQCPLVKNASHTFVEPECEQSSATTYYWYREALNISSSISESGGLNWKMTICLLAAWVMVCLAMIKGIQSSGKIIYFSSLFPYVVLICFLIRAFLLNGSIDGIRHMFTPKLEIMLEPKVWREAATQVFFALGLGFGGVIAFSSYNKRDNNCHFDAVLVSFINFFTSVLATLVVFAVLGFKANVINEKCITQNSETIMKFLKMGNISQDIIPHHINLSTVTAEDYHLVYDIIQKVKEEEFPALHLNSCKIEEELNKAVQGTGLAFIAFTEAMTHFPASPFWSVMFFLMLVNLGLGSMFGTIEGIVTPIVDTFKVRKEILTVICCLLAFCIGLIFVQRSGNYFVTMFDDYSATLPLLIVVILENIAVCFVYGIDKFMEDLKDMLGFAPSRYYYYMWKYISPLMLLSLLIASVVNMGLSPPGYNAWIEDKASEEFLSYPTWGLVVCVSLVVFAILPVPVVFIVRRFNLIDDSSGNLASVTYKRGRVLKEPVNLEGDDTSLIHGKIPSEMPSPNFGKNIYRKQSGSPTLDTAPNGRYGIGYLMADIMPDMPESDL
The experiment in a line: Inhibition of eGFP-tagged human B0AT2 expressed in HEK293 cells measured within 10 mins by [3H]proline uptake assay.

For the next assay, the target named is Histamine H1 receptor (Homo sapiens, UniProt P35367). Nature of the assay: Displacement of [3H]mepyramine from human histamine H1 receptor expressed in Sf9 cells by scintillation counting method. (Displacement assays read how much labelled ligand stays bound in the presence of the test substance.)
For assay [2], the target named is T2, Sodium-dependent neutral amino acid transporter B(0)AT2 (Homo sapiens) (UniProt Q9H2J7).
T2 sequence (whole entry): T1 sequence (Q9H2J7 whole entry)
Nature of the assay: Inhibition of eGFP-tagged human B0AT2 expressed in HEK293 cells assessed as reduction in proline-induced inward current at 100 uM by patch clamp assay. Background: Patch clamp records ionic current or voltage across a cell membrane.

For assay [3], the target named is T2, Sodium-dependent neutral amino acid transporter B(0)AT2 (Homo sapiens). The experiment in a line: Reversible inhibition of eGFP-tagged human B0AT2 expressed in HEK293 cells assessed as reduction in proline-induced inward current at 100 uM measured post drug wash out by patch clamp assay.
The target is the same in assay [4]. Nature of the assay: Activation of eGFP-tagged human B0AT2 expressed in HEK293 cells assessed as induction of inward current at 100 uM by patch clamp assay.
The target is the same in assay [5]. Nature of the assay: Inhibition of eGFP-tagged human B0AT2 expressed in HEK293 cells at 5 mM measured within 10 mins by [3H]proline uptake assay.

The source made the active and inactive calls. No cut-off for these calls is given here.

Histamine H1 receptor, sequence (P35367 whole entry): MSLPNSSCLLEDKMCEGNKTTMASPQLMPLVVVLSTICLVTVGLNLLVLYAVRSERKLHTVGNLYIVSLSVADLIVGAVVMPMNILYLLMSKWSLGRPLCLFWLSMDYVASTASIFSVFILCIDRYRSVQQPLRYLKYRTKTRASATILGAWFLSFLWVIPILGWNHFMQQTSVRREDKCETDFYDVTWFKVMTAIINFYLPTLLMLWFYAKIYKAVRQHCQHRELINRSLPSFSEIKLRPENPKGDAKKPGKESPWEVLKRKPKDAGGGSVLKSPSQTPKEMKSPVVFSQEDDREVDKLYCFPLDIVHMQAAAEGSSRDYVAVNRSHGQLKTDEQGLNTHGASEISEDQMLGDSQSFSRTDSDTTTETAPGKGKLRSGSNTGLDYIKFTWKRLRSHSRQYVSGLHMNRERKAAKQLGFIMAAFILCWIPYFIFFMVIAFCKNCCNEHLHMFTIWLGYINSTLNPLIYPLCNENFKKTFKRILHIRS

Usually IC50 stands for the midpoint of a concentration-inhibition curve. `Clc1ccc2c(c1)CCc1cccnc1C2=C1CCNCC1` [DESLORATADINE] returned a 50% inhibitory concentration (IC50) in assay [1] of 172 µM.

In the case of `COC(=O)N1CCC(=C2c3ccc(Cl)cc3CCc3cccnc32)CC1`, the IC50 in assay [1] worked out at 19.6 µM.

What is called Ki is the dissociation constant of the complex between target and ligand, obtained from inhibition or displacement. A higher Ki goes with lower affinity. `C/C=C/C(=O)N1CCC(=C2c3ccc(Cl)cc3CCc3cccnc32)CC1` yielded an IC50 in assay [1] of 5 µM. At Histamine H1 receptor, this compound came in with an inhibitory constant (Ki) of 0.153 µM.

In the case of `CCOC(=O)N1CCC(=C2c3ccc(Cl)cc3CCc3cc(OC)cnc32)CC1`, the 50% inhibitory concentration (IC50) in assay [1] came out at 4.5 µM. The Ki at Histamine H1 receptor worked out at 1.95 µM.

`CCOC(=O)N1CCC(=C2c3ccc(Cl)cc3CCc3c(C#N)ccnc32)CC1`: the IC50 in assay [1] was above 80 µM.

Turning to `O=C(Oc1ccccc1)N1CCC(=C2c3ccc(Cl)cc3CCc3cccnc32)CC1`, the IC50 in assay [1] is above 80 µM.

`COCC(=O)N1CCC(=C2c3ccc(Cl)cc3CCc3cccnc32)CC1` came in with an IC50 in assay [1] of 26.4 µM.

Compound `CCOC(=O)N1CCC(=C2c3ccc(Cl)cc3CCc3ccc(CO)nc32)CC1` gave an IC50 in assay [1] above 80 µM.

What is called inhibition is the drop in the measured response relative to a control, in per cent. `CCOC(=O)N1CCC(=C2c3ccc(Cl)cc3CCc3cccnc32)CC1` [LORATADINE] returned a half-inhibitory concentration (IC50) in assay [1] of 4 µM. Besides, the inhibition result in assay [2] and in assay [3] was “Active” throughout. In addition, the outcome in assay [4] was inactive.

In turn, `CCOC(=O)N1CCC(=C2c3ccc(Cl)cc3CCc3ccc(C#N)nc32)CC1` had a half-inhibitory concentration (IC50) in assay [1] above 80 µM.

`CC(C)[C@@H](N)C(=O)N1CCC(=C2c3ccc(Cl)cc3CCc3cccnc32)CC1` showed a 50% inhibitory concentration (IC50) in assay [1] of 39.1 µM.

For the compound `CCOC(=O)N1CCC(=C2c3ccc(Cl)cc3CCc3ccc(C(=O)OC)nc32)CC1`, half-maximal inhibition in assay [1] (IC50) required 12.4 µM. In addition, on Histamine H1 receptor, the Ki was above 10 µM.

As to `O=C(CC1CCCCC1)N1CCC(=C2c3ccc(Cl)cc3CCc3cccnc32)CC1`, half-maximal inhibition in assay [1] (IC50) required 5.7 µM. In addition, the affinity at Histamine H1 receptor, expressed as Ki, was 0.441 µM.

With `CCCC(=O)N1CCC(=C2c3ccc(Cl)cc3CCc3cccnc32)CC1`, in assay [1], half-maximal inhibition (IC50) required 4.9 µM. The same compound returned an inhibition constant Ki at Histamine H1 receptor of 0.171 µM.

`CCOC(=O)N1CC=C(C2c3ccc(Cl)cc3CCc3cccnc32)CC1` (stereo unspecified) returned an IC50 in assay [1] of 14.8 µM.

Regarding `CCCOC(=O)N1CCC(=C2c3ccc(Cl)cc3CCc3cccnc32)CC1`, in assay [1], the IC50 came to 4.6 µM.

The compound `O=C(OCc1ccccc1)N1CCC(=C2c3ccc(Cl)cc3CCc3cccnc32)CC1` yielded a 50% inhibitory concentration (IC50) in assay [1] above 80 µM.

The compound `CC(C)C(=O)N1CCC(=C2c3ccc(Cl)cc3CCc3cccnc32)CC1` displayed a half-inhibitory concentration (IC50) in assay [1] of 41.5 µM.

Compound `NCCC(=O)N1CCC(=C2c3ccc(Cl)cc3CCc3cccnc32)CC1` came in with an IC50 in assay [1] of 18.7 µM.

`CN1CCC(=C2c3ccc(Cl)cc3CCc3cccnc32)CC1` yielded an IC50 in assay [1] above 80 µM.

Regarding `CCCS(=O)(=O)N1CCC(=C2c3ccc(Cl)cc3CCc3cccnc32)CC1`, in assay [1], the IC50 was above 80 µM.

Compound `CC(C)COC(=O)N1CCC(=C2c3ccc(Cl)cc3CCc3cccnc32)CC1` showed a half-maximal inhibitory concentration (IC50) in assay [1] of 7.8 µM. Further, the Ki on Histamine H1 receptor amounted to 1.27 µM.

On to `CC(=O)N1CCC(=C2c3ccc(Cl)cc3CCc3cccnc32)CC1` [SCH-37370], for which the midpoint of inhibition in assay [1], the IC50, lay at 54.8 µM.

In turn, `NCC(=O)N1CCC(=C2c3ccc(Cl)cc3CCc3cccnc32)CC1` showed an IC50 in assay [1] of 22.9 µM.

Compound `C=CCOC(=O)N1CCC(=C2c3ccc(Cl)cc3CCc3cccnc32)CC1` came in with a half-inhibitory concentration (IC50) in assay [1] of 4.9 µM.

In assay [1], `CC(C)C[C@@H](N)C(=O)N1CCC(=C2c3ccc(Cl)cc3CCc3cccnc32)CC1` showed an IC50 of 7.7 µM. The same compound came in with a Ki on Histamine H1 receptor of 4.65 µM.

On to `CCSC(=O)N1CCC(=C2c3ccc(Cl)cc3CCc3cccnc32)CC1`, for which the IC50 in assay [1] came out at 5.3 µM.

The compound `CC(C)(C)OC(=O)N1CCC(=C2c3ccc(Cl)cc3CCc3cccnc32)CC1` yielded an IC50 in assay [1] above 80 µM.

As to `CCNC(=O)N1CCC(=C2c3ccc(Cl)cc3CCc3cccnc32)CC1`, in assay [1], it took 35 µM to reach half-maximal inhibition (IC50).

In assay [1], `CCOC(=O)N1CCC(=C2c3ccc(Cl)cc3CCc3c(CO)ccnc32)CC1` came in with an IC50 of 18.3 µM.

Turning to `CC(C)CC(=O)N1CCC(=C2c3ccc(Cl)cc3CCc3cccnc32)CC1`, in assay [1], half-maximal inhibition (IC50) required 10.8 µM. This compound also came in with an inhibitory constant (Ki) on Histamine H1 receptor of 0.289 µM.

In assay [1], `CC(C)OC(=O)N1CCC(=C2c3ccc(Cl)cc3CCc3cccnc32)CC1` had an IC50 of 16.8 µM.

As for `CCOC(=O)N1CCC(=C2c3ccc(Cl)cc3CCc3cc(O)cnc32)CC1`, the IC50 in assay [1] was found to be 17.6 µM.

Regarding `Cc1cncc(CN2CCC(=C3c4ccc(Cl)cc4CCc4cccnc43)CC2)c1` [RUPATADINE], the IC50 in assay [1] was above 40 µM.

`CCCCCC(=O)N1CCC(=C2c3ccc(Cl)cc3CCc3cccnc32)CC1` displayed an IC50 in assay [1] of 5.2 µM.

In assay [1], `CCCCC(=O)N1CCC(=C2c3ccc(Cl)cc3CCc3cccnc32)CC1` gave a half-inhibitory concentration (IC50) of 3.4 µM. This compound had a Ki on Histamine H1 receptor of 0.147 µM.

In the case of `CCC(=O)N1CCC(=C2c3ccc(Cl)cc3CCc3cccnc32)CC1`, the IC50 in assay [1] is 36 µM.

The compound `NC1(C(=O)O)CC2CCC1C2` (stereo unspecified) came in with an inhibition in assay [5] of 80%.

In turn, `O=C(Cc1ccccc1)N1CCC(=C2c3ccc(Cl)cc3CCc3cccnc32)CC1` showed an IC50 in assay [1] of 16.1 µM.

These data come from ChEMBL document CHEMBL3352018 (J Med Chem, 2014).
